Data on three compounds can be found in publication PMC8628145 (Cancer chemotherapy and pharmacology, 2021).

Several values for one entry are separate records, joined by “and”; a condition that tells them apart may be missing. Equal values may be shown once. A value given as a limit tells only on which side of the number the result lay.

Series [1] has as its system PlGF. The series can be described thus: Plasma placental growth factor level. The class given is in vivo, human.
For series [2], the system named is CYP3A4. Particulars: at 50 µM (~ 18 µg/mL); ArQule data on file; cited from earlier work.
For series [3], the system named is beta-tubulin. The series can be described thus: Skin biopsy immunohistochemistry, tubulin expression. The class given is in vivo, human. Particulars: skin biopsies, oral tivantinib for two weeks (with bevacizumab), C1D15.
Series [4] deals with soluble VEGFR1 (sVEGFR1). Put plainly: Plasma soluble VEGFR1 level. The class given is in vivo, human.
The subject of series [5] is VEGF-A. Put plainly: Plasma VEGF-A level. The class given is in vivo, human.
Series [6] deals with β-tubulin. The series can be described thus: Total β-tubulin expression in patient PBMCs by immunoblot. In kind it is in vivo, human. Particulars: following tivantinib treatment, data not shown.
The conditions of series [7]: day 5, previously reported; cited from earlier work.
The subject of series [8] is tubulin. The series can be described thus: Tubulin polymerization assay. The class given is biochemical. Particulars: supplemental Fig. 3B.
Series [9] can be described thus: Plasma pharmacokinetics of tivantinib and metabolites. Particulars: for Cl/F: first dose, based on AUC0–inf; for half-life: t½.
In series [10] the test system is bFGF. Put plainly: Plasma bFGF level. In kind it is in vivo, human.
For series [11], the target named is Met (Homo sapiens, UniProt P08581). The series can be described thus: Skin biopsy immunohistochemistry, total MET expression. The class given is in vivo. Particulars: skin biopsies after tivantinib treatment.
For series [12], the system named is human RKO colon cancer cells. The series can be described thus: Immunoblot of α- and β-tubulin expression in RKO cells. The class given is cell-based. Particulars: supplemental Fig. 3A. In general terms: A western blot detects proteins with antibodies after separation by electrophoresis.
Series [13] concerns HGF. Put plainly: Plasma HGF level. The class given is in vivo, human.
Series [14] concerns the target p-Tyr1234/5-Met (Homo sapiens, UniProt P08581). Put plainly: Skin biopsy immunohistochemistry, p-MET expression. In kind it is in vivo. Particulars: skin biopsies following tivantinib (with bevacizumab), C1D15.
For series [15] the following is noted: human, in vivo, 1 day.
Where [16] appears, read: addition of tivantinib to bevacizumab.

Sequence of p-Tyr1234/5-Met (P08581 25-1390): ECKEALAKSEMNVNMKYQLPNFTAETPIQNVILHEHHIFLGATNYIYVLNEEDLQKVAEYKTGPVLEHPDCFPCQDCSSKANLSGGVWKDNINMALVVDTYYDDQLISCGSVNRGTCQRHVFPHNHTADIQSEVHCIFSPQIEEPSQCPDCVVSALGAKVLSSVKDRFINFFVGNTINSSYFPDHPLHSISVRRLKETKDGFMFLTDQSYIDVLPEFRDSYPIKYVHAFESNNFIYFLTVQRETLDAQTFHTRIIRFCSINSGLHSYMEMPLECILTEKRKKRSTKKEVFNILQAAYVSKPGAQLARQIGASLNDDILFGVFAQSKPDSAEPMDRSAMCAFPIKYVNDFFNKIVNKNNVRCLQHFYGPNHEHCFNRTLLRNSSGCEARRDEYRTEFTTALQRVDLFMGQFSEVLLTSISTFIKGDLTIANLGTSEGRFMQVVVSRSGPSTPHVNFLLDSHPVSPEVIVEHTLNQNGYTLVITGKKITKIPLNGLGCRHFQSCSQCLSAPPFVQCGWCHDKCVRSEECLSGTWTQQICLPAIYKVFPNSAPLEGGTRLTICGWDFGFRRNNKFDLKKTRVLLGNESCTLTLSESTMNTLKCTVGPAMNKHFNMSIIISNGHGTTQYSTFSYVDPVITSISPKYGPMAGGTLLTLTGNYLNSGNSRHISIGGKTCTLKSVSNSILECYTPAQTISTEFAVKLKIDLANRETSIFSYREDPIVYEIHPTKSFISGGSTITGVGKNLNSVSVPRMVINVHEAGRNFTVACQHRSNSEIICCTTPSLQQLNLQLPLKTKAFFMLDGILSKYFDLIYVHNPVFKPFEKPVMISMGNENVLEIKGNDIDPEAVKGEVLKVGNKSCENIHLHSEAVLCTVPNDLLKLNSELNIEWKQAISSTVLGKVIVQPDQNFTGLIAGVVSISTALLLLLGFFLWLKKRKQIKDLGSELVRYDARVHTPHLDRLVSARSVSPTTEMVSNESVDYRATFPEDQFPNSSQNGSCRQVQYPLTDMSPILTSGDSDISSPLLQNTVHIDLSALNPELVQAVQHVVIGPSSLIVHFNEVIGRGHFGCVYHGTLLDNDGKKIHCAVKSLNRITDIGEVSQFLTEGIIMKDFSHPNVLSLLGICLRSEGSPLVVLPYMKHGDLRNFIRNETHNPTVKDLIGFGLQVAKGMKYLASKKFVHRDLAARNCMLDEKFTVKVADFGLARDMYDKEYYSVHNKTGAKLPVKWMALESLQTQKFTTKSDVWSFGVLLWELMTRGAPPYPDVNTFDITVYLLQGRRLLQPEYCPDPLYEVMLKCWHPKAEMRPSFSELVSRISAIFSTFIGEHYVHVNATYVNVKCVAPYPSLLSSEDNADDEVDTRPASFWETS
Sequence of Met (P08581 25-1390): as above

The term AUC(0-t) denotes the area under the concentration-time curve up to a stated or last time point. Broadly, the Tmax is the time from dosing to the highest level. The half-life is the time needed for the level to fall by half in the phase considered. Regarding `O=C1NC(=O)[C@@H](c2cn3c4c(cccc24)CCC3)[C@@H]1c1c[nH]c2ccccc12` [tivantinib], the “Plasma PIGF concentrations” value in series [1] (setting [16]) is given as “did not alter PIGF concentrations”. Further, in series [2], the “Time-dependent inhibition of CYP3A4” value was “exhibits time-dependent inhibition”. Moreover, in [3], the “Patients with substantial reductions in tubulin expression in skin” value was 4/11 and 4 of 11. For the same compound, the “Plasma sVEGFR1 concentrations” value in [4] (following tivantinib administration) is given as “increased in four patients”. Also, the “Plasma VEGF-A concentrations” value in series [5] (setting [16]) is listed as “did not alter VEGF-A concentrations”. In addition, the “Tubulin expression in patient PBMCs” value in [6] is “No significant differences”. The Steady-state clearance in series [7] is 11.8 L/h. In addition, the Tubulin polymerization result in [8] is recorded as “inhibited tubulin polymerization, but not to the same extent as vincristine”. Moreover, in series [9] (Total (N = 11), all dose levels, day 1, plasma, mean (SD)), the t½ was 5.1 (2.4) h. Also, the Cl/F was found to be 24.9 L/h in series [9] (Total (N = 11), mean (SD)); 9.43 L/h in [9] (tivantinib 120/120 mg AM/PM (N = 1)); 25.8 L/h in [9] (tivantinib 360/240 mg AM/PM (N = 1)). Moreover, in series [9] (human, plasma, oral, AUC0–8, tivantinib 360/240 mg AM/PM (N = 1), day 1, plasma), the AUC(0-t) was 5020 ng·h/mL. Besides, the Tmax in series [9] (human, plasma, oral, Tmax, tivantinib 120/120 mg AM/PM (N = 1), day 1, plasma) is 2.5 h; in [9] (human, plasma, oral, Tmax, tivantinib 360/240 mg AM/PM (N = 1), day 1, plasma) it was 3 h; in series [9] (human, plasma, po, Time of peak plasma concentration, day 1, all 11 patients), roughly 3 h. In addition, the half-life in series [9] (human, plasma, oral, tivantinib 120/120 mg AM/PM (N = 1), day 1, plasma) was 8.2 h; in series [9] (human, plasma, oral, tivantinib 360/240 mg AM/PM (N = 1), day 1, plasma), 9.2 h. Moreover, in series [9] (tivantinib 120/120 mg AM/PM (N = 1), day 1, plasma), the “AUC0–8” value came out at 5570 ng·h/mL. Moreover, the “Time for accumulation to reach steady-state” value in series [9] (twice daily dosing) is reported as no more than 24 h. The “Plasma bFGF concentrations” value in [10] (day 15, following 14 days of tivantinib added to bevacizumab, p = 0.047) is recorded as “returned to baseline in most patients”. Besides, the “Total MET expression in the cytoplasm (skin)” value in [11] is “remained unchanged”. Also, in series [12], the “α- and β-tubulin protein expression” value is “loss of both α- and β-tubulin protein expression”. Further, the “Plasma HGF concentrations” value in series [13] (addition of tivantinib, in the six patients with increase after bevacizumab) was “decreased in these same patients”. Further, the “Patients with reduced p-MET expression in skin” value in [14] is 7/11 and 7 of 11. Besides, the “Dose-normalised exposure on day 1” value in series [15] is reported as 5.82 ng/mL/mg.

On to `CC[C@]1(O)C[C@H]2CN(CCc3c([nH]c4ccccc34)[C@@](C(=O)OC)(c3cc4c(cc3OC)N(C=O)[C@H]3[C@@](O)(C(=O)OC)[C@H](OC(C)=O)[C@]5(CC)C=CCN6CC[C@]43[C@@H]65)C2)C1` [vincristine, reference compound], for which, in series [12], the “α- and β-tubulin protein expression” value was “loss of both α- and β-tubulin protein expression”.

Consider bevacizumab [reference compound], for which the “Average increase of plasma PIGF” value in series [1] (after bevacizumab treatment) is reported as 60%. In addition, in series [1] (after bevacizumab treatment, p = 0.005), the “Patients with increased plasma PIGF” value was 10 of 11. Besides, the “Plasma sVEGFR1 concentrations” value in series [4] (after bevacizumab administration, five patients with elevated baseline) was “decreased”. Besides, the “Plasma VEGF-A” value in series [5] (after bevacizumab treatment) is “decreased expression of VEGF-A in two patients (#01; #07) and increases in eight patients”. For the same compound, the “Patients with increased plasma bFGF” value in series [10] (after bevacizumab-only lead-in (day 1 vs day − 15), p = 0.008) was 8 of 11. In addition, in [13] (after bevacizumab treatment), the “Plasma HGF concentrations” value was “increased in six patients”.
